The subject of series [1] is human CRC HT-29 cells. The experiment in a line: MTT cell viability / IC50 on HT-29 cells. In kind it is cell-based. As to conditions: for IC50: MTT assay, 1 to 50 µM, mean ± SEM of at least three experiments; for viability at 50 µM: HT-29. The protocol: (§1) Cells were grown in DMEM medium for HT-29 cells and RPMI 1640 medium for HCT116 cells, supplemented with 10% FBS, 1% L-glutamine and 100 U/mL penicillin and 100 μg/mL streptomycin. Cultures were maintained in a humidified atmosphere containing 5% CO2 at 37 °C. Stock solutions of each compound were used at 10^−2 M in DMSO and then diluted in culture medium to obtain the appropriate final concentrations. […] L929 cell line is a non-cancer cell line derived from L-strain (L cells) and has been grown in the Peptinov laboratory for years. L929 cells are murine adherent fibroblasts from subcutaneous connective tissue (areolar and adipose tissues). Cells were grown in DMEM medium supplemented with 10% FBS, 1% L-glutamine and 100 U/mL penicillin and 100 µg/mL streptomycin and maintained in a humidified incubator at 37 °C, 5% CO2. When confluence is at 80%, cells are trypsinyzed for 3 min and diluted in fresh medium. Each batch of cells is kept for 15 passages before being discarded and a new batch thawed.
(§2) All compounds were tested on the metabolic activity of the cells using the MTT colorimetric assay. Briefly, cells were seeded in 96-well microplates at 8 × 10^3 cells/well for human CRC HT-29 cells and 5 × 10^3 cells/well for human CRC HCT116 cells and grown for 24 h in appropriate culture medium prior to exposure or not to compounds (6–27) with concentration ranges from 1 to 50 µM. After 48 h of treatment, MTT (5 g/L in Phosphate-buffered saline (PBS)) was added and incubated for another 3 h. The MTT was then removed from the wells and 100 µL/well of DMSO were added to dissolve formazan. The optical density was detected with a microplate reader (Thermoscientific, Multiskan FC) at 550 nm and cell viability was expressed as a percentage of each treatment condition compared to control cells. IC50 values were calculated for all compounds from the dose–response curve.

The test system of series [2] is human CRC HT-29 cells. Briefly: DNA fragmentation, Cell Death Detection ELISA, HT-29. In kind it is cell-based. As to conditions: treated at IC50, n-fold compared to control. Here is the method: (§3) Human CRC HT-29 and HCT116 cells were treated or not with the determined IC50 values of compounds (12a, 10a, 10b) for 24 and 48 h and then harvested with trypsin. Histone release from the nucleus during apoptosis was analyzed using the Cell Death Detection ELISA^PLUS as previously described. Cytosol extracts from 10^5 cells of each condition were obtained and DNA fragmentation was measured according to the manufacturer’s protocol. Results were reported as n-fold compared to control cells.

In series [3] the test system is human CRC HCT116 cells. The experiment in a line: MTT cell viability / IC50 on HCT116 cells. In kind it is cell-based. As to conditions: for IC50: MTT assay, 1 to 50 µM, mean ± SEM of at least three experiments; for viability at 50 µM: HCT-116, MTT screening. Here is the method: as §1, §2
The subject of series [4] is PARP. Briefly: Western blot of cleaved PARP in HT-29 cells. In kind it is cell-based, human. The protocol:
(§4) Human CRC HT-29 and HCT116 cells were treated or not with the determined IC50 values of compounds (12a, 10a, 10b) for indicated times (6, 12, 24 and 48h) and then harvested with trypsin. For total protein extraction, collected samples of each condition were washed with PBS. Then, the total cell pool was centrifuged at 200× g for 5 min at 4 °C and homogenized in RIPA lysis buffer (50 mM HEPES, pH 7.5, 150 mM NaCl, 1% sodium deoxycholate, 1% NP-40, 0.1% Sodium Dodecyl Sulfate (SDS), […] of aprotinin) containing protease inhibitors according to the manufacturer’s instructions as previously described. Proteins (60 µg) were separated on 12.5% SDS-PAGE gels and transferred to polyvinylidene difluoride (PVDF) membranes. Membranes were probed with respective human antibodies against caspase-3, cleaved caspase-3, PARP and Akt, ERK, p38 MAP Kinases and its phosphorylated forms according to the manufacturer’s instructions. After incubation with appropriate secondary antibodies, blots were developed using the «Immobilon Western » substrate following the manufacturer’s protocol and G:BOX system (Syngene, Ozyme). Membranes were then reblotted with human anti-β-actin used as a loading control.
Cells were treated or not for 24 and 48 h, with IC50 values of compounds 10a, 10b and 12a, for human CRC HT-29 cells and compounds 10a and 12a for human CRC HCT116 cells. Total lysates were collected, and expression of apoptosis-related proteins was determined by Western blot analysis.
On the technique in general: In western blotting, separated proteins are transferred to a membrane and probed.

In another series the test system is P-Akt. The experiment in a line: Western blot of P-Akt in HCT116 cells. In kind it is cell-based, human. The conditions noted are these: HCT116, treated at IC50, 6 and 12 h. The protocol: as §4, with “Membranes were then reblotted with human anti-β-actin used as a loading control.” left out
(§5) P-Akt, Akt, P-ERK, ERK, P-p38, p-38 sourced from human CRC HCT116 cells line were investigated. […] Total lysates were collected and expression of Akt, ERK and p38 MAPK proteins and their phosphorylated forms were determined by Western blot analysis.

The subject of another series is P-ERK. Briefly: Western blot of P-ERK in HCT116 cells. In kind it is cell-based, human. As to conditions: HCT116, treated at IC50, 6 and 12 h. The protocol:
as §4, with “Membranes were then reblotted with human anti-β-actin used as a loading control.” left out
as §5

Another series deals with P-p38. The experiment in a line: Western blot of P-p38 in HCT116 cells. In kind it is cell-based, human. As to conditions: HCT116, treated at IC50, 6 and 12 h. Here is the method: as §4, with “Membranes were then reblotted with human anti-β-actin used as a loading control.” left out
as §5

The subject of series [5] is human CRC HCT116 cells. Briefly: DNA fragmentation, Cell Death Detection ELISA, HCT116. The conditions noted are these: treated at IC50, n-fold compared to control. In kind it is cell-based. Here is the method: as §3
The test system of series [6] is caspase-3. The experiment in a line: Western blot of cleaved caspase-3 in HCT116 cells. In kind it is cell-based, human. The conditions noted are these: HCT116, treated at IC50, 24 h (enhanced after 48 h). The protocol:
as §4
(§6) Cells were treated or not for 24 and 48 h, with IC50 values of compounds 10a, 10b and 12a, for human CRC HT-29 cells and compounds 10a and 12a for human CRC HCT116 cells. […]

Series [7] has as its system caspase-3. Briefly: Western blot of cleaved caspase-3 in HT-29 cells. As to conditions: HT-29, treated at IC50, within 48 h. In kind it is cell-based, human. The protocol: as §4, §6
The subject of series [8] is PARP. The experiment in a line: Western blot of cleaved PARP in HCT116 cells. As to conditions: HCT116, treated at IC50, 24 and 48 h. In kind it is cell-based, human. The protocol:
as §4, §6

Setting [9] is: Homo sapiens, 50 µM, 48 h, MTT screening.

`COc1ccc(C(=Cc2ccc(C(C)(C)C)cc2)c2ccccn2)cc1` [Compound 10b, 2-(2-(4-(tert-butyl)phenyl)-1-(4-methoxyphenyl)vinyl)pyridine]: the “Cell viability (%) HT-29” value in the series on human CRC HT-29 cells [1] (50 µM, 48 h, MTT screening) is given as under 50%. Further, the IC50 in the series on human CRC HT-29 cells [1] (48 h) is 25.2 ± 1.28 µM; with human CRC HCT116 cells [3] (48 h) it was over 50 µM. Besides, the “HT-29 DNA Fragmentation (Fold)” value is reported as 1.24 Fold in the series on human CRC HT-29 cells [2] (24 h) and 0.84 Fold in the series on human CRC HT-29 cells [2] (48 h). The “cleaved PARP expression” value was “never been expressed” in the series with PARP [4] (HT-29, treated at IC50, 24 h) and “never been expressed” in the series on PARP [4] (HT-29, treated at IC50, 48 h).

Regarding `COc1ccc(C(=Cc2ccc(C(C)(C)C)cc2)c2ccccn2)cc1` [Compound 10a, 2-(2-(4-(tert-butyl)phenyl)-1-(4-methoxyphenyl)vinyl)pyridine], the P-Akt expression entry with P-Akt is “inhibition is also observed”. In addition, in the series on P-ERK, the ERK phosphorylation entry is listed as “drastically decreased”. Besides, the IC50 is under 30 µM in the series with human CRC HT-29 cells [1] (Homo sapiens, HT-29, 48 h); 25.7 ± 1.21 µM in the series with human CRC HT-29 cells [1] (48 h); under 35 µM in the series on human CRC HCT116 cells [3] (Homo sapiens, HCT-116, 48 h); 33.6 ± 0.71 µM in the series with human CRC HCT116 cells [3] (48 h). The viability at 50 µM with human CRC HT-29 cells [1] (setting [9]) was under 50%; with human CRC HCT116 cells [3] (Homo sapiens, 48 h) it was under 50%. Besides, the “HT-29 DNA Fragmentation (Fold)” value with human CRC HT-29 cells [2] (24 h) is on record as 1.12 Fold; with human CRC HT-29 cells [2] (48 h) it was 0.83 Fold. In the series with P-p38, the p38 activation entry is “no p38 activation was observed”. The “HCT116 DNA Fragmentation (Fold)” value with human CRC HCT116 cells [5] (24 h) is on record as 0.83 Fold; in the series on human CRC HCT116 cells [5] (48 h), 1.89 Fold. For the same molecule, the “cleaved PARP expression” value in the series on PARP [4] (HT-29, treated at IC50, 24 h) is “never been expressed”; with PARP [4] (HT-29, treated at IC50, 48 h), “never been expressed”.

`COc1ccc(C(=Cc2ccc(C(F)(F)F)cc2)c2ccccn2)cc1` [Compound 12a, 2-(1-(4-methoxyphenyl)-2-(4-(trifluoromethyl)phenyl)vinyl)pyridine]: the “cleaved caspase-3 expression” value in the series on caspase-3 [6] was “cleavage of caspase-3”; in the series with caspase-3 [7] it was “high expression of the cleaved form of caspase-3”. Further, in the series with P-Akt, the P-Akt expression entry is recorded as “downregulated”. For the same molecule, the ERK phosphorylation entry in the series with P-ERK is “drastically decreased”. The viability at 50 µM was under 50% in the series on human CRC HT-29 cells [1] (setting [9]) and under 50% in the series on human CRC HCT116 cells [3] (Homo sapiens, 48 h). Moreover, the IC50 in the series with human CRC HT-29 cells [1] (48 h) was 23 ± 1.27 µM; with human CRC HCT116 cells [3] (Homo sapiens, HCT-116, 48 h), under 35 µM; with human CRC HCT116 cells [3] (48 h) it was 31.4 ± 1.74 µM. The results for the “HT-29 DNA Fragmentation (Fold)” value with human CRC HT-29 cells [2] (24 h) and with human CRC HT-29 cells [2] (48 h) were 2.90 Fold and 3.25 Fold, respectively. For the same molecule, the p38 activation result with P-p38 is “no p38 activation was observed”. Besides, the “HCT116 DNA Fragmentation (Fold)” value in the series on human CRC HCT116 cells [5] (24 h) is 1.46 Fold; in the series on human CRC HCT116 cells [5] (48 h), 6.97 Fold. The “cleaved PARP expression” value in the series on PARP [8] was “significant increase of cleaved PARP”; with PARP [4] (HT-29, treated at IC50, 24 h), “slightly enhanced”; in the series on PARP [4] (HT-29, treated at IC50, 48 h), “overexpressed”.

The IC50 is the concentration needed to halve the response being measured. Lower therefore signals higher potency. Usually viability stands for the share of living cells, or the viability signal relative to a control. A lower viability goes with a greater loss of cells.

The record behind these values is PMC9855432, “Novel Set of Diarylmethanes to Target Colorectal Cancer: Synthesis, In Vitro and In Silico Studies” (Biomolecules, 2022).
